According to patent US9877479B2, “Pamoic acid blocks ethelyne signaling” (THE REGENTS OF THE UNIVERSITY OF CALIFORNIA, priority 2010, dated 2018):
“Also recorded” adds a separate entry of the source.

What was measured:
Assay type in all cases: in vivo
[1] = system: Wild type Arabidopsis seedlings; assay: Ethylene dependent seedling triple response, dark, saturating ethylene
Description: (§1) FIG. 5. Wild type Arabidopsis seedlings were grown for four days in the dark in the presence of saturating ethylene (100 ppm) and either 0 or 10 μM pamoic acid after which it was determined whether aspects of the ethylene dependent seedling triple response were affected.
FIG. 6. Wild type Arabidopsis seedlings were grown for four days in the dark in the presence of either the ethylene perception inhibitor AgNO3 or saturating ethylene (100 ppm) along with either 0 or 10 μM pamoic acid. Following this, hypocotyl length and number of seedlings presenting an ethylene dependent apical hook in the presence of saturating ethylene (shown as percentages) were determined (n=40).
FIG. 7. Wild type Arabidopsis seedlings were grown for four days in the dark in the presence of either air or saturating ethylene (100 ppm) along with either 0 or 10 μM pamoic acid. Following this, root length was measured for each treatment (n=40).
(§2) This is a dark phenotype that results in severe stunting of shoot and root growth along with a pronounced apical hook in the presence of saturating ethylene. This phenotype is ultimately conditioned by auxin acting through ethylene. […] FIG. 5 represents a mutant that has constitutive ethylene signaling (ctr1) and FIGS. 6 and 7 represents wild type treated with ethylene+/−PA.

[2] = system: Mutant Arabidopsis seedlings (ctrl-3); assay: Constitutive ethylene response phenotype of mutant seedlings
Description: FIG. 3. Mutant Arabidopsis seedlings (ctrl-3) that have a constitutive ethylene response phenotype, including severe root shortening dependent on unregulated ethylene signaling, were grown in the light in nutrient medium supplemented with either 0 or 10 μM pamoic acid for 7 days. Following this, roots of each were measured (n=40).
as §1, §2

[3] = system: Flowers of Dianthus caryophyllus (carnation); assay: Ethylene dependent flower senescence of cut carnations; conditions: cut flowers in water supplemented with 50 μM pamoic acid, observed to Day 8
Description: FIG. 8. Flowers of Dianthus caryophyllus (carnation) were harvested and immediately placed cut side down into either water or water supplemented with 50 μM pamoic acid.

[4] = system: auxin inducible reporter gene called DR5; assay: Auxin inducible reporter gene DR5 expression; conditions: auxin treatment; PA especially at high levels
Description: The effects of auxin on an auxin inducible reporter gene called DR5 were measured. Normally, auxin treatment results in increased expression of DR5, which is evidenced by blue color in the roots and leaf tip.

seedling roots [5] = assay: Growth of seedlings on increasing amounts of PA (root growth)
Description: (§3) This is not a toxicity issue in due to the data in panels 10B and C. In panel 10B, seedlings were grown in the absence or presence of a highly inhibitory amount of NAA. A subset of these seedlings also had PA added to them. […] Gravitropism is a well know auxin dependent phenomenon.

seedling roots [6] = assay: Root growth in presence of a highly inhibitory amount of NAA, with or without PA; conditions: PA added
Description: as §3

wild type roots = assay: Gravitropic response of seedlings
Description: as §3

ethylene inducible genes = assay: Ethylene inducible gene expression in presence of PA; conditions: ethylene treatment in the presence of PA (panel 12A); listed as PA
Description: (§4) Since PA reduces ethylene response, it was natural to assume that it would also reduce ethylene mediated gene expression. […] PA was then tested on gene expression that was dependent on auxin and ethylene.

[7] = system: genes that require both ethylene and auxin for induction; assay: Expression of genes dependent on auxin and ethylene in presence of PA; conditions: in the presence of PA (panel 12B)
Description: as §4

[8] = wild type, four days in the dark, saturating ethylene (100 ppm), 10 μM pamoic acid

| SMILES | ethylene response phenomena including apical hook formation and root growth inhibition ([1]; wild type treated with ethylene +/- PA (FIGS. 6 and 7)) | ethylene dependent apical hook [1, 8] | root length compared to seedlings not treated with pamoic acid [1, 8] | constitutive ethylene response of ctrl-3 mutants ([2]; ctrl-3 mutants) | ethylene response phenomena including apical hook formation and root growth inhibition ([2]; mutant with constitutive ethylene signaling (ctr1), FIG. 5) | petal inrolling or petal senescence [3] | DR5 expression [4] | root growth at high concentrations of PA (seedling roots [5]; high concentrations of PA) | root length with increasing amounts of PA (seedling roots [5]; increasing amounts of PA) | length of PA+NAA treated roots relative to NAA treated roots (seedling roots [6]) | gravitropism of roots and shoots (wild type roots; in the presence of PA) | gravitropic response of seedling roots (wild type roots; wild type roots treated with PA) | expression of ethylene inducible genes following ethylene treatment (ethylene inducible genes) | expression of two genes that require both ethylene and auxin for induction [7] |
| --- | --- | --- | --- | --- | --- | --- | --- | --- | --- | --- | --- | --- | --- | --- |
| O=C(O)c1cc2ccccc2c(Cc2c(O)c(C(=O)O)cc3ccccc23)c1O [pamoic acid, Pamoic acid] | strictly blocks | elimination of the ethylene dependent apical hook | significant increase in root length | reversing the constitutive ethylene response | strictly blocks | no evidence of petal inrolling or petal senescence even after Day 8 | reduced or eliminated DR5 expression | almost completely block root growth | progressively shorter roots | nearly double the length of NAA treated roots | both roots and shoots become agravitropic | completely destroys the gravitropic response | also upregulated in the presence of PA; also recorded: normally upregulated following ethylene treatment even in the presence of PA | extremely reduced |
| CC(C)(Oc1ccc(Cl)cc1)C(=O)O [CPIB, reference compound] |  |  |  |  |  |  | eliminates DR5 expression |  |  |  |  |  |  |  |
